Results from patent US6172185A, “Antimicrobial cationic peptide derivatives of bactenecin” (priority 1998, dated 2001).
Where a SMILES comes first, the peptide text is derived from it. Where no end group is shown, it is not given here.

Legend:
[1] = system: Human Red Blood Cells
[2] = system: Strep. pyogenes; assay: MIC, modified two-fold microtitre broth dilution; assay type: cell-based, Streptococcus pyogenes; conditions: for MIC Strep. pyogeness: Table IID, linear (Group 2): reduced forms of the peptides, Bac (Oxidized) as comparator
Description: (§1) Bacterial strains for antimicrobial activity testing included Escherichia coli UB1005 and its antibiotic supersusceptible derivative DC2 (Richmond et al., Antimicrob. Agents Chemother. 10:215, 1976), Pseudomonas aeruginosa K799 and its antibiotic-supersusceptible derivative Z61 (Angus et al., Antimicrob. Agents Chemother. 21:299, 1982), Salmonella typhimurium 14028s and its defensin-supersusceptible derivative MS7953s (Fields et al., Science, 243:1059, 1989), Staphylococcus aureus ATCC25923 and a clinical isolate Staphylococcus aureus SAP1007. Other Gram-positive bacterial strains include Staphylococcus epidermidis (clinical isolate) and Enterococcus faecalis ATCC29212, Listeria monocytogenes, Corynebacterium xerosis, Streptococcus pneumoniae ATTC49619, Streptococcus pyogenes ATTC19615, Streptococcus mitis.
(§2) The minimal inhibitory concentration (MIC) of peptides was determined by a modified two-fold microtitre broth dilution method modified from that of Steinberg et al (Steinberg, Antimicrob. Agents Chemother. 41:1738, 1997). Using the classical method (Amsterdam, Antibiotics in Laboratory Medicine (Lorian, V., ed) pp. 72-78, 1991), higher concentrations of peptides tend to precipitate in the LB broth, thus the concentrations of peptides in the sequential wells are not accurate. Also the peptides stick to the most readily available (tissue-culture treated polystyrene) 96-well microtitre plates. Therefore the 2× series of dilutions was performed in Eppendoff tubes (polypropylene) before mixing with LB broth. Serial of two fold dilutions of peptides ranging from 640 μg/ml to 1.25 μg/ml were made in 0.2% BSA, 0.01% acetic acid buffer in the Eppendoff tubes. Ten μl of each concentration was added to each corresponding well of a 96-well microtiter plate (polypropylene cluster; Costar Corporation, Cambridge, Mass.). Bacteria were grown overnight and diluted 10-5 into fresh LB broth or Todd Hewitt broth for Streptococcus. LB medium contained 10 g/1l tryptone and 5 g/yeast extract, with no salt. Todd Hewitt contained 500 g/l beef heart infusion, 20 g/l bacto neopeptone, 2 g/l bacto dextrose, 2 g/l sodium chloride, 0.4 g/l disodium phosphate, 2.5 g/l sodium carbonate. One hundred […] containing about 10^4-10^5 CFU/ml of tested bacteria was added to each well. The plate was incubated at 37° C. overnight. The MIC was taken as the concentration at which greater than 90% of growth inhibition was observed.

[3] = system: Staph. aureus; assay: MIC, modified two-fold microtitre broth dilution; assay type: cell-based, Staphylococcus aureus
Description: as §1, §2

[4] = system: S.typhimurium; assay: MIC, modified two-fold microtitre broth dilution; assay type: cell-based, Salmonella typhimurium
Description: as §1, §2

[5] = system: E.coli UB1005; assay: MIC, modified two-fold microtitre broth dilution; assay type: cell-based, Escherichia coli
Description: as §1, §2

[6] = system: Listeria monocytogenes; assay: MIC, modified two-fold microtitre broth dilution; assay type: cell-based
Description: as §1, §2

[7] = system: E.facaelis; assay: MIC, modified two-fold microtitre broth dilution; assay type: cell-based, Enterococcus faecalis
Description: as §1, §2

[8] = system: Staph. epidermidis; assay: MIC, modified two-fold microtitre broth dilution; assay type: cell-based, Staphylococcus epidermidis
Description: as §1, §2

[9] = system: P.aeruginosa; assay: MIC, modified two-fold microtitre broth dilution; assay type: cell-based, Pseudomonas aeruginosa
Description: as §1, §2

[10] = system: Strep. mitis; assay: MIC, modified two-fold microtitre broth dilution; assay type: cell-based, Streptococcus mitis; conditions: for MIC Strep. mitis: Table IID, linear (Group 2): reduced forms of the peptides, Bac (Oxidized) as comparator
Description: as §1, §2

[11] = system: C. xerosis; assay: MIC, modified two-fold microtitre broth dilution; assay type: cell-based, Corynebacterium xerosis
Description: as §1, §2

[12] = system: Strep. pneumoniae; assay: MIC, modified two-fold microtitre broth dilution; assay type: cell-based, Streptococcus pneumoniae; conditions: for MIC Strep. pneumonia: Table IID, linear (Group 2): reduced forms of the peptides, Bac (Oxidized) as comparator; for MIC S. pneumonia: Table IIIB, non-linear positive-charge modification derivatives; for MIC S. pneumoniae: Table IVB, non-linear hydrophobicity modification derivatives
Description: as §1, §2

[13] = Table IIIB, non-linear positive-charge modification derivatives
[14] = Table IID, linear (Group 2): reduced forms of the peptides, Bac (Oxidized) as comparator
[15] = Table IIC, linear (Group 2): reduced forms of the peptides, Bac (Oxidized) as comparator
[16] = table IIA, non-linear positive-charge modification derivatives
[17] = Table IVB, non-linear hydrophobicity modification derivatives
[18] = Table IVA, non-linear hydrophobicity modification derivatives

Row | Compound | Minimal Agglutinating Concentration, Oxidized Form [1] [µg/mL] | Minimal Agglutinating Concentration, Reduced Form [1] [µg/mL] | MIC Strep. pyogeness [2] [µg/mL] | MIC Staph. aureus [3, 14] [µg/mL] | MIC Staph. aureus [3, 13] [µg/mL] | MIC S. typhimurium [4, 15] [µg/mL] | MIC S. typhimurium [4, 16] [µg/mL] | MIC E.coli UB1005 [5, 15] [µg/mL] | MIC E.coli UB1005 [5, 16] [µg/mL] | MIC Listeria [6, 14] [µg/mL] | MIC E.facaelis [7, 14] [µg/mL] | MIC E.facaelis [7, 13] [µg/mL] | MIC Staph. epidermidis [8, 14] [µg/mL] | MIC Staph. epidermidis [8, 13] [µg/mL] | MIC P. aeruginosa [9, 15] [µg/mL] | MIC P. aeruginosa [9, 16] [µg/mL] | MIC Strep. mitis [10] [µg/mL] | MIC C. xerosis [11, 14] [µg/mL] | MIC Strep. pneumonia [12] [µg/mL] | other results
1 | CC[C@H](C)[C@@H]1NC(=O)[C@H](C(C)C)NC(=O)[C@H](C(C)C)NC(=O)[C@H]([C@@H](C)CC)NC(=O)[C@@H]2CCCN2C(=O)[C@@H](NC(=O)[C@H](CCCNC(=N)N)NC(=O)[C@@H](N)CCCNC(=N)N)CSSC[C@@H](C(=O)N[C@@H](CCCNC(=N)N)C(=O)O)NC(=O)[C@H](C(C)C)NC(=O)[C@H](CCCNC(=N)N)NC1=O [Bac R, P, RRCPIVVIRVCR] (HELM PEPTIDE1{R.R.C.P.I.V.V.I.R.V.C.R}$PEPTIDE1,PEPTIDE1,3:R3-11:R3$$$V2.0) | > 64 |  |  |  |  |  |  |  |  |  |  |  |  |  |  |  |  |  |  | 
2 | KKCPIVVIRVCK [Bac 3K, P, tested oxidized and reduced] | > 64 | 64 | 64 | > 64 | > 64 | > 64 | 32 | > 64 | 16 | 4 | > 64 | > 64 | > 64 | > 64 | > 64 | > 64 | 0.25 | 4 | > 64 | MIC Strep. pyogenes [2, 13]: > 64 µg/mL; MIC Listeria [6, 13]: 8 µg/mL; MIC S. mitis [10, 13]: 2 µg/mL; MIC C. xerosis [11, 13]: 16 µg/mL; MIC S. pneumonia [12]: > 64 µg/mL
3 | RICRIVVIRCIR-NH2 (cysteine pairing not given here) [Bac 2I-NH2] | 32 |  |  |  | 32 |  | 8 |  | 4 |  |  | > 32 |  | 8 |  | 16 |  |  |  | 
4 | RLARIVVIRVAR-NH2 [Bac 2A-NH2, RLARIVVIRVAR-NH2] | > 64 |  |  |  |  |  |  |  |  |  |  |  |  |  |  |  |  |  |  | 
5 | RLCPRVRIRVCR-NH2 (cysteine pairing not given here) [Bac 2R, P-NH2] | > 32 |  |  |  | > 32 |  | 32 |  | 4 |  |  | > 32 |  | 16 |  | 16 |  |  |  | 
6 | RLCRIVPVIRVCR [Bac P, tested oxidized and reduced] | 64 | 64 | 32 | > 64 |  | 64 |  | 16 |  | 4 | 32 |  | 16 |  | 32 |  | 2 | 2 | > 64 | MIC Strep. pyogenes [2, 17]: 64 µg/mL; MIC Staph. aureus [3, 17]: 64 µg/mL; MIC S. typhimurium [4, 18]: > 64 µg/mL; MIC E.coli UB1005 [5, 18]: 32 µg/mL; MIC Listeria [6, 17]: 2 µg/mL; MIC E.facaelis [7, 17]: > 64 µg/mL; MIC Staph. epidermidis [8, 17]: 64 µg/mL; MIC P. aeruginosa [9, 18]: > 64 µg/mL; MIC S. mitis [10, 17]: 4 µg/mL; MIC C. xerosis [11, 17]: 8 µg/mL; MIC S. pneumoniae [12]: > 64 µg/mL
7 | RLCRIVWVIRVCR [Bac W, tested oxidized and reduced] | 32 | 4 | 16 | > 64 |  | 64 |  | > 64 |  | 2 | 32 |  | 32 |  | > 64 |  | 1 | 1 | 32 | MIC Strep. pyogenes [2, 17]: 2 µg/mL; MIC Staph. aureus [3, 17]: 4 µg/mL; MIC S. typhimurium [4, 18]: 4 µg/mL; MIC E.coli UB1005 [5, 18]: 8 µg/mL; MIC Listeria [6, 17]: 0.5 µg/mL; MIC E.facaelis [7, 17]: 8 µg/mL; MIC Staph. epidermidis [8, 17]: 2 µg/mL; MIC P. aeruginosa [9, 18]: 4 µg/mL; MIC S. mitis [10, 17]: 1 µg/mL; MIC C. xerosis [11, 17]: 1 µg/mL; MIC S. pneumoniae [12]: 16 µg/mL
8 | RLSRIVVIRVCR-NH2 [Bac S-NH2, RLSRIVVIRVCR-NH2] | > 64 |  |  |  |  |  |  |  |  |  |  |  |  |  |  |  |  |  |  | 
9 | RLSRIVVIRVSR-NH2 [Bac 2S-NH2, RLSRIVVIRVSR-NH2] | > 64 |  |  |  |  |  |  |  |  |  |  |  |  |  |  |  |  |  |  | 
10 | RRCPIVVIRVCR-NH2 (cysteine pairing not given here) [Bac R, P-NH2] | > 64 |  |  |  | 32 to 64 |  | 16 |  | 2 |  |  | > 64 |  | 32 |  | 16 |  |  |  | MIC Strep. pyogenes [2, 13]: 16 µg/mL; MIC Listeria [6, 13]: 1 µg/mL; MIC S. mitis [10, 13]: 2 µg/mL; MIC C. xerosis [11, 13]: 2 µg/mL; MIC S. pneumonia [12]: > 64 µg/mL
